Reference: US8440420B2, “Assessment of cardiac health and thrombotic risk in a patient” (priority 2005, dated 2013)
Read-outs that look alike come from different tables or passages of the source. Values belong to the compound of their own block, whether it stands above or below them. Where a SMILES comes first, the peptide text is derived from it. Bridges are numbered along the chain shown (N, C = ends). [ ]: non-standard residue; d: D form. hArg = N=C(N)NCCCC[C@H](N)C(=O)O; Mpa = O=C(O)CCS

Columns and labels:
[1] = system: platelets (arachidonic acid-induced aggregation); assay: Aspirin resistance by arachidonic acid-induced aggregation, LTA (Example 1); assay type: in vivo; details: 1.0 mM arachidonic acid; 1/70 patients; aspirin 81-325 mg qd
Description: J Am Coll Cardiol 1998 89:783).

[2] = system: platelets (arachidonic acid-induced aggregation); details: Gum et al. study; ADP and 1.6 mM arachidonic acid; cited from earlier work
[3] = system: platelets (ADP-induced aggregation); assay: ADP-induced platelet aggregation by light transmittance aggregometry after coronary stenting (Example 2); assay type: in vivo, patients
Method: Patients were randomly assigned to one of four treatment regimens by a computer generated assignment that was chosen from a sealed envelope by the study personnel: […] […] Unfractionated heparin was administered according to the ESPRIT dosing regimen (60 U/kg) as a bolus to all patients in the catheterization laboratory immediately prior to stenting. […] The blood-citrate tubes were centrifuged at 120 g for 5 minutes to recover platelet rich plasma (PRP) and further centrifuged at 850 g for 10 minutes to recover platelet poor plasma (PPP). The platelet count was determined in the PRP sample and adjusted to 3.0×10^8/ml with homologous platelet poor plasma. The PRP and PPP were stored at room temperature to be used within two hours. Platelet aggregation was assessed as described previously. […] Aggregation was expressed as the maximum percent change in light transmittance from baseline, using PPP as a reference.

[4] = system: activated GP IIb/IIIa receptors; assay: Whole blood flow cytometry, stimulated active GP IIb/IIIa expression (Example 2); assay type: in vivo, patients; details: 18-24 hours post-stenting, 5 μM ADP stimulated
Method: (recognizes activated GP IIb/IIIa receptors), R-Phycoerythrin (R-PE)-conjugated CD41a (recognizes total GP IIb/IIIa receptors), and CY-Chrome™ conjugated CD62P (recognizes p-selectin). […] The blood-citrate mixture was stimulated with 5 μM ADP for 2 minutes.
The definition of an infarct was CK-MB>3× upper limits normal (ULN) in at least 2 samples and a large infarct was defined as CK-MB>5×ULN in at least 2 samples.10,13 Bleeding was quantified according to the TIMI criteria.16 In brief, major bleeding was defined as clinically overt bleeding accompanied by a fall in hemoglobin of […] or a fall in hematocrit of 9 to <15%.

[5] = system: myocardial necrosis markers (troponin I, CKMB, myoglobin); assay: Myocardial necrosis markers and infarction after elective stenting (Example 2); assay type: in vivo, patients; details: for criteria met for a myocardial infarction: CK-MB>3× ULN in at least 2 samples; for large infarcts: CK-MB>5×ULN in at least 2 samples
Method: Patients were randomly assigned to one of four treatment regimens by a computer generated assignment that was chosen from a sealed envelope by the study personnel: […] […] Unfractionated heparin was administered according to the ESPRIT dosing regimen (60 U/kg) as a bolus to all patients in the catheterization laboratory immediately prior to stenting. Cardiac markers were measured at the same times as the platelet assays. The peak levels of troponin I, creatinine kinase MB (CKMB), and myoglobin were determined using the Triage® Cardiac Panel with a Triage® Meter (Biosite Inc., San Diego, Calif.). This method is based on a fluorescence immunoassay for the quantitative determination of these cardiac markers.

p-selectin = details: stimulated; 18-24 hours post-stenting; 300 mg clopidogrel alone
Method: The surface expression of platelet receptors was determined by whole blood flow cytometry using three-color analysis method (Immunocytometry Systems, Cytometry Source Book, Becton Dickinson) with the following monoclonal antibodies: FITCconjugated PAC-1. (recognizes activated GP IIb/IIIa receptors), R-Phycoerythrin (R-PE)-conjugated CD41a (recognizes total GP IIb/IIIa receptors), and CY-Chrome™ conjugated CD62P (recognizes p-selectin). All three antibodies were purchased from BD Biosciences, San Diego, Calif. The blood-citrate mixture was stimulated with 5 μM ADP for 2 minutes. Saturating concentrations of respective antibodies were then added and the tubes were incubated at room temperature for 20 minutes in the dark. […] The labeled samples were analyzed by a Becton Dickinson FACScan flow cytometer set up to measure fluorescence light scatter. The instrument was calibrated with fluorescence beads for the three-color flow cytometer setup (CaliBRITE™3, BD Biosciences). […] The data were collected in list mode and then analyzed using CELL Quest Software (BD BioSciences). P-selectin was expressed as percent positive cells (i.e. the ratio of CD62P (CY-Chrome™) verses CD41a (R-PE) positive cells) as previously described. Activated GP IIb/IIIa was expressed as log mean fluorescence intensity.

[6] = Group A, 300 mg clopidogrel; hematoma
Method: Relative platelet inhibition was defined for purposes of this study as follows: (baseline aggregation minus posttreatment aggregation)/baseline aggregation×100%.14 Mean platelet reactivity was calculated as the average platelet aggregation recorded at 3, 8 and 18-24 hours poststenting. […] The definition of an infarct was CK-MB>3× upper limits normal (ULN) in at least 2 samples and a large infarct was defined as CK-MB>5×ULN in at least 2 samples.10,13 Bleeding was quantified according to the TIMI criteria.16 In brief, major bleeding was defined as clinically overt bleeding accompanied by a fall in hemoglobin of 3.0-5.0 g/dl or a fall in hematocrit of 9 to <15%. Major bleeding occurred when the hemoglobin decreased >5 g/dl or the hematocrit ≧15%.

[7] = system: platelets (ADP-induced aggregation); details: resistance = >75th percentile of group without SAT, 75 mg maintenance dose
Description: Cases of stent thrombosis (n=30) were identified by searching the medical records of patients who underwent coronary stenting in the last 1.5 years at the Sinai Hospital of Baltimore and Union Memorial Hospital, Baltimore, Md. […] Stent thrombosis was defined by the sudden onset of coronary artery occlusion in a stented vessel resulting in hospitalization and judged by the treating interventionalist as due to thrombosis. Platelet reactivity in patients with stent thrombosis (SAT) was compared to a group of patients without SAT. In patients without SAT, platelet studies were performed 5-14 days post-procedure and these patients were enrolled consecutively (n=100). […]
Platelet aggregation was determined by conventional light transmittance aggregometry in response to 5 and 20 μM ADP (adenosine diphosphate); and 1.0 mM arachidonic acid using standard methods as previously described. […] The platelet count was determined in the PRPR sample and adjusted to 2-3×10^8/ml with homologous PPP. Platelets in PRP were stimulated with a final concentration of 5 and 20 μM ADP (Chronolog, Haverton, Pa.), and percent aggregation was assessed as previously described using a Chronolog Lumi aggregometer (Model 490A) with the Aggro-Link software package (Gurbel et al. J Am Coll Cardiol 1998 89:783). […]

[8] = system: platelets (ADP-induced aggregation); details: cited from earlier work

Compound: CC(=O)Oc1ccccc1C(=O)O [aspirin]
patients meeting the criteria for aspirin resistance [1]: 1.5% | patients meeting the criteria for aspirin resistance [2]: 5.5%

minor bleeding [6]: one
Compound: COC(=O)[C@H](c1ccccc1Cl)N1CCc2sccc2C1 [clopidogrel]
time of peak inhibitory effect ([3]; 5 μM ADP, 300 mg clopidogrel loading dose): 18 to 24 h | time of peak inhibitory effect ([3]; 5 μM ADP, 600 mg clopidogrel loading dose): 8 h | platelet inhibition, 600 mg vs 300 mg loading dose ([3]; 5 μM ADP, 600 mg loading dose, no eptifibatide, first 24 hours after stenting): greater platelet inhibition | mean platelet reactivity vs 600 mg clopidogrel alone ([3]; 5 μM ADP, average of 3, 8 and 18-24 hours post-stenting, 300 mg clopidogrel alone): higher mean platelet reactivity | time of peak inhibitory effect ([3]; 20 μM ADP, 300 mg clopidogrel loading dose): 8 h | time of peak inhibitory effect ([3]; 20 μM ADP, 600 mg clopidogrel loading dose): 8 h | inhibition of stimulated expression of active GP IIb/IIIa ([4]; 300 mg clopidogrel loading dose (Groups A, C)): 50±20% | inhibition of stimulated expression of active GP IIb/IIIa ([4]; 600 mg clopidogrel loading dose (Groups B, D)): 63±7% | ST-elevation myocardial infarction in-hospital following a subacute thrombosis ([5]; Group A, 300 mg clopidogrel): one | criteria met for a myocardial infarction ([5]; Group A, 300 mg clopidogrel): 3 patients | large infarcts ([5]; Group A, 300 mg clopidogrel): 2 | criteria met for a myocardial infarction ([5]; Group B, 600 mg clopidogrel): 1 patients | large infarcts ([5]; Group B, 600 mg clopidogrel): 1 | effect in p-selectin expression (p-selectin): least effect | estimated incidence of clopidogrel resistance ([7]; 5 μM ADP-induced aggregation): 65% | estimated incidence of clopidogrel resistance ([7]; 20 μM ADP-induced aggregation): 60% | inhibition of baseline aggregation ([8]; 300 mg loading dose, 5 and 20 μM ADP, 24 hours after administration): < 40%

Compound: N=C(N)NCCCC[C@@H]1NC(=O)CCSSC[C@@H](C(N)=O)NC(=O)[C@@H]2CCCN2C(=O)[C@H](Cc2c[nH]c3ccccc23)NC(=O)[C@H](CC(=O)O)NC(=O)CNC1=O [eptifibatide] ([Mpa][hArg]GDWPC-NH2; disulfide 1-7)
mean platelet reactivity ([3]; 5 μM ADP, average of 3, 8 and 18-24 hours post-stenting, eptifibatide use): lowest mean platelet reactivity | large infarcts ([5]; either group that received eptifibatide (Groups C, D)): no large infarcts | CKMB release (>1-3×ULN), overall ([5]; groups treated with eptifibatide vs clopidogrel alone): lowest | inhibition (of aggregation) ([8]; other studies): > 80%
